In the test the test system is rumen fluid. The test is described as follows: In vitro rumen technique, propionic acid production. As to conditions: 16 h, pH 6.8, read-out: increase of propionic acid over the control.

Regarding `CC[C@@H](C(=O)[C@@H](C)[C@@H](O)[C@H](C)[C@@H]1O[C@@H]([C@@H](CC)C(=O)O)CC[C@@H]1C)[C@H]1O[C@]2(C=C[C@@H](O)[C@]3(CC[C@@](C)([C@H]4CC[C@](O)(CC)[C@H](C)O4)O3)O2)[C@H](C)C[C@@H]1C` [salinomycin], the activation at 10 µg/mL is about 61%.

These data come from patent US4920215A, “Antibiotic produced by fermentation” (Pfizer Inc., priority 1987, dated 1990).
